Assay results as given in patent US20050255595A1, “Genetically modified non-human mammal cells, procedure for their production and use in toxicity tests” (priority 2002, published 2005).
Read-outs that look alike come from different tables or passages of the source.

What was measured:
[1] = system: MMH/GH cells, Clone 2; conditions: for hGH secreted, 5 h: 5 h treatment; for hGH secreted, 5 + 24 h: 5 h treatment + 24 h recovery
[2] = system: MMH/GH cells, Clone 11; conditions: Clone 11; for hGH secreted, 5 h: 5 h treatment; for hGH secreted, 5 + 24 h: 5 h treatment + 24 h recovery
[3] = system: MMH/GH cells, Clone 10; conditions: for hGH secreted, 5 h: 5 h treatment; for hGH secreted, 5 + 24 h: 5 h treatment + 24 h recovery
[4] = system: MMH/GH cells, Clone 4; conditions: Clone 4; for hGH secreted, 5 h: 5 h treatment; for hGH secreted, 5 + 24 h: 5 h treatment + 24 h recovery
[5] = system: single transgenic HPS70/hGH primary hepatocytes (PHGH); test: toxicity test, hGH secretion by primary transgenic hepatocytes (PHGH); assay type: cell-based, mice; conditions: PHGH; 10^-5, 5x10^-5, 10^-4 M; 5 h; FIG. 1 graph A
From the text: On the basis of the results illustrated, for the further analyses, clone no. […] The response to the toxic stress of the clone MMH/GH5 was then compared with the one obtained in single transgenic HPS70/hGH primary hepatocytes (PHGH). A representative sample of the cell line derived from said clone MMH/GH5 was deposited in accordance with and for the purposes of the Treaty of Budapest on the international recognition of deposit of micro-organisms for the purposes of the patents procedure with the AID “Centro di Biotecnologie Avanzate (CBA), Interlab Cell Line Collection (ICLC)” Servizio Biotecnologie, Largo R. Benzi, 10, 16132 Genova, Italy, on Jul. 30, 2002, where it was given identification number PD 02007.
(§1) In table 3 the cellular survival percentage was determined with the Trypan Blue exclusion method. […]
(§2) For treatment, the two types of cells were treated with different concentrations of the compounds for 1 or 5 hours and then with normal medium for a further 24 hours. The effects of the treatment were assessed as described previously for the inorganic toxicants.

[6] = system: MMH/GH cells, Clone 9; conditions: for hGH secreted, 5 h: 5 h treatment; for hGH secreted, 5 + 24 h: 5 h treatment + 24 h recovery
[7] = system: primary hepatocytes (PHGH); test: cellular survival of PHGH, Trypan Blue exclusion; assay type: cell-based, mice; conditions: highest concentrations of the toxicant; Trypan Blue; FIG. 1 graph B
From the text: This different behaviour is explained by the greater sensitivity to the toxicant of the PHGH with respect to the MMH/GH5 as shown by analysis of the cellular vitality performed with the Trypan Blue method (FIG. 1, graph B). […] Therefore the greater resistance of the cells MMH/GH/5 to the toxicants constitutes another evident advantage as it permits the exclusion of false negatives in which the non-release of hGH, due to cellular death, is interpreted as non-toxicity of the compound. When the supernatant is collected after 5 hours of treatment followed by 24 hours of culture with normal medium (FIG. 1 graph C) the PHGHs respond, at the lowest concentrations of the two toxicants, with high levels of secretion of hGH and, at the highest concentrations, with low levels of secretion of hGH (lower cellular survival, graph D).
as §1, §2

[8] = system: MMH/GH5 cells (Clone 5); conditions: for hGH secreted, 5 h / hGH secreted, 5 + 24 h: Clone 5; for hGH secreted, 5 h: 5 h treatment; for hGH secreted, 5 + 24 h: 5 h treatment + 24 h recovery

**Q.** With `[Cl][Cd][Cl]` [CdCl2] as the compound, how does the “hGH secreted, 5 h” value ([1]; 5x10^-5 M (As2/Cd2)) read?
**A.** Its value is 0.

**Q.** What about the “hGH secreted, 5 + 24 h” value ([1]; 5x10^-5 M (As2/Cd2)) of the same compound?
**A.** The value was 4.

**Q.** And the “hGH secreted, 5 h” value ([1]; 10^-4 M (As3/Cd3))?
**A.** Its value is 0.

**Q.** What about the “hGH secreted, 5 + 24 h” value ([1]; 10^-4 M (As3/Cd3)) of the same compound?
**A.** The value was 0.

**Q.** And the “hGH secreted, 5 h” value ([1]; 10^-5 M (As1/Cd1))?
**A.** The value was 0.

**Q.** And the “hGH secreted, 5 + 24 h” value ([1]; 10^-5 M (As1/Cd1))?
**A.** Its value is 0.

**Q.** What about the “hGH secreted, 5 h” value ([2]; 5x10^-5 M (As2/Cd2)) of the same compound?
**A.** The value was 0.

**Q.** And the “hGH secreted, 5 + 24 h” value ([2]; 5x10^-5 M (As2/Cd2))?
**A.** The value was 0.

**Q.** What about the “hGH secreted, 5 h” value ([2]; 10^-4 M (As3/Cd3)) of the same compound?
**A.** The value was 0.

**Q.** And the “hGH secreted, 5 + 24 h” value ([2]; 10^-4 M (As3/Cd3))?
**A.** The value was 0.

**Q.** What about the “hGH secreted, 5 h” value ([2]; 10^-5 M (As1/Cd1)) of the same compound?
**A.** Its value is 40.

**Q.** What about the “hGH secreted, 5 + 24 h” value ([2]; 10^-5 M (As1/Cd1)) of the same compound?
**A.** Its value is 0.

**Q.** What about the “hGH secreted, 5 h” value ([3]; 5x10^-5 M (As2/Cd2)) of the same compound?
**A.** Its value is 0.

**Q.** And the “hGH secreted, 5 + 24 h” value ([3]; 5x10^-5 M (As2/Cd2))?
**A.** The value was 12.

**Q.** What about the “hGH secreted, 5 h” value ([3]; 10^-4 M (As3/Cd3)) of the same compound?
**A.** The value was 0.

**Q.** And the “hGH secreted, 5 + 24 h” value ([3]; 10^-4 M (As3/Cd3))?
**A.** The value was 7.

**Q.** What about the “hGH secreted, 5 h” value ([3]; 10^-5 M (As1/Cd1)) of the same compound?
**A.** Its value is 0.

**Q.** And the “hGH secreted, 5 + 24 h” value ([3]; 10^-5 M (As1/Cd1))?
**A.** The value was 25.

**Q.** And the “hGH secreted, 5 h” value ([4]; 5x10^-5 M (As2/Cd2))?
**A.** Its value is 0.

**Q.** What about the “hGH secreted, 5 + 24 h” value ([4]; 5x10^-5 M (As2/Cd2)) of the same compound?
**A.** Its value is 0.

**Q.** What about the “hGH secreted, 5 h” value ([4]; 10^-4 M (As3/Cd3)) of the same compound?
**A.** The value was 0.

**Q.** And the “hGH secreted, 5 + 24 h” value ([4]; 10^-4 M (As3/Cd3))?
**A.** Its value is 0.

**Q.** What about the “hGH secreted, 5 h” value ([4]; 10^-5 M (As1/Cd1)) of the same compound?
**A.** The value was 0.

**Q.** What about the “hGH secreted, 5 + 24 h” value ([4]; 10^-5 M (As1/Cd1)) of the same compound?
**A.** The value was 0.

**Q.** What about the “release of hGH in the culture medium in relation to concentration of the toxicant” value [5] of the same compound?
**A.** The value was “inversely proportional”.

**Q.** And the “hGH secreted, 5 h” value ([6]; 5x10^-5 M (As2/Cd2))?
**A.** The value was 200.

**Q.** What about the “hGH secreted, 5 + 24 h” value ([6]; 5x10^-5 M (As2/Cd2)) of the same compound?
**A.** Its value is 0.

**Q.** What about the “hGH secreted, 5 h” value ([6]; 10^-4 M (As3/Cd3)) of the same compound?
**A.** The value was 5.

**Q.** What about the “hGH secreted, 5 + 24 h” value ([6]; 10^-4 M (As3/Cd3)) of the same compound?
**A.** The value was 0.

**Q.** And the “hGH secreted, 5 h” value ([6]; 10^-5 M (As1/Cd1))?
**A.** The value was 0.

**Q.** What about the “hGH secreted, 5 + 24 h” value ([6]; 10^-5 M (As1/Cd1)) of the same compound?
**A.** Its value is 0.

**Q.** What about the “survival of the PHGHs” value [7] of the same compound?
**A.** The value was “practically nil”.

**Q.** What about the “hGH secreted, 5 h” value ([8]; 5x10^-5 M (As2/Cd2)) of the same compound?
**A.** The value was 50.

**Q.** And the “hGH secreted, 5 + 24 h” value ([8]; 5x10^-5 M (As2/Cd2))?
**A.** The value was 40.

**Q.** And the “hGH secreted, 5 h” value ([8]; 10^-4 M (As3/Cd3))?
**A.** The value was 90.

**Q.** And the “hGH secreted, 5 + 24 h” value ([8]; 10^-4 M (As3/Cd3))?
**A.** The value was 20.

**Q.** What about the “hGH secreted, 5 h” value ([8]; 10^-5 M (As1/Cd1)) of the same compound?
**A.** Its value is 25.

**Q.** And the “hGH secreted, 5 + 24 h” value ([8]; 10^-5 M (As1/Cd1))?
**A.** The value was 25.

**Q.** And the “release of hGH in the culture medium in relation to concentration of the toxicant” value ([8]; MMH/GH5, 10^-5, 5x10^-5, 10^-4 M, 5 h, FIG. 1 graph A)?
**A.** Its value is “directly proportional to the concentration of the toxicant”.
